Assays:
CsiD = target: T1, CsiD (Escherichia coli, UniProt P76621); assay: CsiD activity assay, product inhibition; format: biochemical; settings: reaction product
T1 construct: gene glaH; full ORF, N-terminal 6xHis tag (pET28a), expressed in E. coli BL21(DE3); Fe(II); homotetramer
T1 sequence (P76621 1-325): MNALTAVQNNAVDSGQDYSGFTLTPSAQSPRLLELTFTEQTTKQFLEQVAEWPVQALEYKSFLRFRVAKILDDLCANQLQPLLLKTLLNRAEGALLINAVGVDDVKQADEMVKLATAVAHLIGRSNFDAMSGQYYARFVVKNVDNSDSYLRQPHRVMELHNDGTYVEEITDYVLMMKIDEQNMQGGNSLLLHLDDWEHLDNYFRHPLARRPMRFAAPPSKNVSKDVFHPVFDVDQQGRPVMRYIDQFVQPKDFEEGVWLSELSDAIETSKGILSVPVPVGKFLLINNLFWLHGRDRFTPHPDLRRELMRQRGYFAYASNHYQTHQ

CsiR = target: T2, CsiR (Escherichia coli, UniProt P37338); assay: filter binding assay with […]-labelled csiD promoter DNA; settings: 1 mM ligand, Tris-HCl pH 7.6, 5 mM MgCl2; allosteric relief of DNA binding
T2 construct: gene glaR; full ORF, N-terminal 6xHis tag (pET28a), expressed in E. coli BL21(DE3)
T2 sequence (P37338 1-220): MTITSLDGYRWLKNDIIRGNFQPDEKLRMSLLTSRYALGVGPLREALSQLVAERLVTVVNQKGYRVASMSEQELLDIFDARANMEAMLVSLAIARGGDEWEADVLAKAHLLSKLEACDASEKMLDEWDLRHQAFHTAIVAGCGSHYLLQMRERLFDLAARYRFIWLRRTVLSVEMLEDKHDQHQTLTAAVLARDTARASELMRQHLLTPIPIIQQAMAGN

Row | Compound | weak inhibition (CsiD) | reduced DNA binding at 1 mM (CsiR)
1 | O=C(O)CC[C@H](O)C(=O)O [L-2-hydroxyglutarate] | We did observe weak inhibition of CsiD by its product L2HG | –
2 | O=C(O)CCCC(=O)O [glutarate] | – | repressive effect at the csiD promoter site is specifically relieved upon GA binding

— publication PMC6265302, “Widespread bacterial lysine degradation proceeding via glutarate and L-2-hydroxyglutarate” (Nature Communications, 2018)
